Literature values as cited in paper PMC4148150 (Journal of Medicinal Chemistry, 2014).

Conditions: mice, oral dosing

Compound: CC(=O)N1CCC(NC(=O)NC23CC4CC(CC(C4)C2)C3)CC1 [APAU, 1-(1-acetypiperidin-4-yl)-3-adamantanylurea]
- PK-AUC: 0.183 µM·h

Compound: CS(=O)(=O)N1CCC(NC(=O)Nc2ccc(OC(F)(F)F)cc2)CC1 [TUPS, 1-(1-methylsulfonyl-piperidin-4-yl)-3-(4-trifluoromethoxyphenyl)-urea]
- PK-AUC: 5.3 µM·h
